# Test results from article PMC11053447, “Human ABC and SLC Transporters: The Culprit Responsible for Unspecific PSMA-617 Uptake?” (Pharmaceuticals, 2024).
# How the values were obtained:
# human MATE2-K = human MATE2-K (Homo sapiens, UniProt Q86VL8); test: SLC transporter substrate assay, MDCKII-MATE2K-Fin vs control MDCKII-CAT-Fin cells
# Protocol: (§1) The described cells were plated onto standard 24-well tissue culture plates at densities of 5 × 10^5 cells/well. […] Before starting the experiment, the cells were prepared by removing the medium and washing the cells twice with 300 µL of assay buffer. […] The cells were lysed by adding 300 µL of 0.1N NaOH, they were incubated for 10 min at 37 °C and 100 µL samples were taken from all the wells.
# (§2) The amount of protein in each well was quantified using the BCA kit for protein determination (Sigma-Aldrich, St Louis, MO, USA). Positive controls were performed using a separate 96-well plate format according to Table S8 in SI4.
# (§3) SI4. Results of transporter substrate assays (SLC)
# (§4) Table S8: Parameters of positive controls, control cell lines and plating for SLC transporters assays.
# (§5) KH: Krebs-Henseleit buffer, HBSS: Hank's balanced salt solution, MES: 2 -(N-morpholino) ethanesulfonic acid, cGMP:
# (§6) Guanosine cyclic phosphate, E3S: Estrone -3-sulfate, Gly-Sar: Glycylsarcosine, MPP+: 1-methyl-4-phenylpyridinium.
# (§7) Calculation of fold accumulation values for SLC transporter substrate assays The fold accumulation value was defined as the ratio of uptake of the test substance (TS) or probe substrate into transfected and control cells. If the fold accumulation is > 2 and can be inhibited by a known inhibitor of the transporter, the test substance can be considered as a substrate of the respective transporter.
# (§8) Fold accumulation = UPTTRP
# (§9) • UPTTRP: accumulated amount of test substance (TS) or probe substrate in transfected cells normalized by protein content […]
# (§10) • UPTCTRL: accumulated amount of test substance (TS) or probe substrate in control cells normalized by protein content […]
# 4.2 Multidrug and toxin extrusion protein MATE2-K
# (MDCKII-MATE2K-Fin) and control cells (MDCKII-CAT-Fin) applying 2- and 20-minute incubation periods, measured in SLC transporter substrate assay. […] Concentrations are nominal. […]
# and control cells (MDCKII-CAT-Fin) applying 2- and 20-minute incubation periods, measured in SLC transporter […]
# Compound Nominal In MATE2-K Fold
# human PEPT2 = molecular target: T1, human PEPT2 (Homo sapiens, UniProt Q16348); test: SLC transporter substrate assay, CHO-K1-PEPT2 vs control CHO-K1 cells; details: 20 min; for Max. transporter-specific fold accumulation, without inhibitor / Max. transporter-specific fold accumulation, with inhibitor: 0.3 µM; for Max. transporter-specific fold accumulation, with inhibitor: Cefadroxil
# T1 sequence (Q16348 1-729): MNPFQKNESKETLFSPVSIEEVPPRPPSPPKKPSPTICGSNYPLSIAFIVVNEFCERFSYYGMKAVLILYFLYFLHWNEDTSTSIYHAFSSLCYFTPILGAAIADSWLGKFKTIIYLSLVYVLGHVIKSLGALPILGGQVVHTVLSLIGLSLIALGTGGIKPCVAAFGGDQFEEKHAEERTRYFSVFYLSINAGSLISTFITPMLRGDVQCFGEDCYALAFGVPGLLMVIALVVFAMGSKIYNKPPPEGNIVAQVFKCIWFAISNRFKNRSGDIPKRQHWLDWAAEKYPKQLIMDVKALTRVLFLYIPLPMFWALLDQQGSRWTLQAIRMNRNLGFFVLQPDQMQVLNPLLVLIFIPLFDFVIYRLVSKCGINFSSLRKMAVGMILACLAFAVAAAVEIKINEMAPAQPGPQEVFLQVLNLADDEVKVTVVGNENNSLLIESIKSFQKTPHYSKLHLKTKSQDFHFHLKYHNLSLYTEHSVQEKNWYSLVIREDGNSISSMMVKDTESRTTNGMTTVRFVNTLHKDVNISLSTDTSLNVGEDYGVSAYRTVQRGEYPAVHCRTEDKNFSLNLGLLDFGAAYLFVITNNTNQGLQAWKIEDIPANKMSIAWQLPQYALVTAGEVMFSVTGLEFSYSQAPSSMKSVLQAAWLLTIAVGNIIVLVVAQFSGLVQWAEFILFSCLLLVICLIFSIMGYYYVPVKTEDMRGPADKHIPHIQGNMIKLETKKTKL
# Protocol: as §1, §2, §3, §4, §5, §6, §7, §8, §9, §10
# Positive control conducted at pH 5.0.
# Gly-Sar: Glycylsarcosine.
# [1] = pH 5.0, 0.03 µM nominal + Cefadroxil 200 µM
# [2] = pH 5.0, 0.03 µM nominal, no inhibitor
# [3] = pH 5.0, 0.30 µM nominal + Cefadroxil 200 µM
# [4] = pH 5.0, 0.30 µM nominal, no inhibitor
# [5] = pH 6.0, 0.03 µM nominal + Cefadroxil 200 µM
# [6] = pH 6.0, 0.03 µM nominal, no inhibitor
# [7] = pH 6.0, 0.30 µM nominal + Cefadroxil 200 µM
# [8] = pH 6.0, 0.30 µM nominal, no inhibitor
# Chain of human MATE2-K (Q86VL8 1-566 isoform Q86VL8-3): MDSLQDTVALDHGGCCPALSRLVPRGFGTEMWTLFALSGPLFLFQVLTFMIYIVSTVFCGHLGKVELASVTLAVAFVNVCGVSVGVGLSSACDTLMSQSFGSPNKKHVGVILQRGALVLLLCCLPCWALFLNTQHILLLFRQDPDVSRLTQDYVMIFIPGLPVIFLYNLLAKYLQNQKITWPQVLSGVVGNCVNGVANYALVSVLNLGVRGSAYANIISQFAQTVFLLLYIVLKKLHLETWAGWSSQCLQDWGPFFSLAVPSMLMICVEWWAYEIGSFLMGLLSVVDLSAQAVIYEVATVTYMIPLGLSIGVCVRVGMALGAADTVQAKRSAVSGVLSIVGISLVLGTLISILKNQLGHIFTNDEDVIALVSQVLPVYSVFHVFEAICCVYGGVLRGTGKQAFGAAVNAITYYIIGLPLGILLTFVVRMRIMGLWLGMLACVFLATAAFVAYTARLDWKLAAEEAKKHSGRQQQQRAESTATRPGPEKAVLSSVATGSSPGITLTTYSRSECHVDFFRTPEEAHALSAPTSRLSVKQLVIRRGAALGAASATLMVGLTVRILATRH
smiles,measurement,setting,value
"[3H]C(c1ccc2ccccc2c1)C([3H])(NC(=O)C1CCC(CNC(=O)CN2CCN(CC(=O)[O-])CCN(CC(=O)[O-])CCN(CC(=O)[O-])CC2)CC1)C(=O)NCCCCC(NC(=O)NC(CCC(=O)O)C(=O)O)C(=O)O.[Lu+3] (stereo not drawn) [([α,β-^3H]Nal)Lu-PSMA-617]",Accumulation in MATE2-K transporter expressing cells,"human MATE2-K; 0.03 µM nominal, 2 min",0.06 ± 0.01 pmol/mg protein
same,Accumulation in control cells,"human MATE2-K; 0.03 µM nominal, 2 min",0.11 ± 0.01 pmol/mg protein
same,"Accumulation, active transport","human MATE2-K; 0.03 µM nominal, 2 min",-0.05 ± 0.02 pmol/mg protein
same,Fold accumulation,"human MATE2-K; 0.03 µM nominal, 2 min",0.54
same,Accumulation in MATE2-K transporter expressing cells,"human MATE2-K; 0.03 µM nominal, 20 min",0.10 ± 0.01 pmol/mg protein
same,Accumulation in control cells,"human MATE2-K; 0.03 µM nominal, 20 min",0.16 ± 0.01 pmol/mg protein
same,"Accumulation, active transport","human MATE2-K; 0.03 µM nominal, 20 min",-0.07 ± 0.01 pmol/mg protein
same,Fold accumulation,"human MATE2-K; 0.03 µM nominal, 20 min",0.59
same,Accumulation in MATE2-K transporter expressing cells,"human MATE2-K; 0.30 µM nominal, 2 min",0.64 ± 0.14 pmol/mg protein
same,Accumulation in control cells,"human MATE2-K; 0.30 µM nominal, 2 min",0.59 ± 0.04 pmol/mg protein
same,"Accumulation, active transport","human MATE2-K; 0.30 µM nominal, 2 min",0.05 ± 0.15 pmol/mg protein
same,Fold accumulation,"human MATE2-K; 0.30 µM nominal, 2 min",1.08
same,Accumulation in MATE2-K transporter expressing cells,"human MATE2-K; 0.30 µM nominal, 20 min",0.91 ± 0.13 pmol/mg protein
same,Accumulation in control cells,"human MATE2-K; 0.30 µM nominal, 20 min",0.97 ± 0.07 pmol/mg protein
same,"Accumulation, active transport","human MATE2-K; 0.30 µM nominal, 20 min",-0.06 ± 0.15 pmol/mg protein
same,Fold accumulation,"human MATE2-K; 0.30 µM nominal, 20 min",0.94
same,Substrate assessment (MATE2-K),"human MATE2-K; 0.03, 0.30 µM, 2, 20 min",no in vitro substrate
same,"Max. transporter-specific fold accumulation, without inhibitor","human MATE2-K; 2 min, 0.3 µM",1.08
same,Uptake via transporter (PEPT2),"human PEPT2; pH 5.0 and 6.0, absence and presence of cefadroxil",not taken up
same,Accumulation in PEPT2 transporter expressing cells,human PEPT2; [1],0.16 ± 0.03 pmol/mg protein
same,Accumulation in control cells,human PEPT2; [1],0.08 ± 0.00 pmol/mg protein
same,"Accumulation, active transport",human PEPT2; [1],0.08 ± 0.03 pmol/mg protein
same,Fold accumulation,human PEPT2; [1],1.94
same,Accumulation in PEPT2 transporter expressing cells,human PEPT2; [2],0.16 ± 0.03 pmol/mg protein
same,Accumulation in control cells,human PEPT2; [2],0.12 ± 0.01 pmol/mg protein
same,"Accumulation, active transport",human PEPT2; [2],0.04 ± 0.03 pmol/mg protein
same,Fold accumulation,human PEPT2; [2],1.34
same,Accumulation in PEPT2 transporter expressing cells,human PEPT2; [3],1.58 ± 0.48 pmol/mg protein
same,Accumulation in control cells,human PEPT2; [3],0.70 ± 0.12 pmol/mg protein
same,"Accumulation, active transport",human PEPT2; [3],0.88 ± 0.50 pmol/mg protein
same,Fold accumulation,human PEPT2; [3],2.27
same,Accumulation in PEPT2 transporter expressing cells,human PEPT2; [4],1.70 ± 0.50 pmol/mg protein
same,Accumulation in control cells,human PEPT2; [4],0.87 ± 0.16 pmol/mg protein
same,"Accumulation, active transport",human PEPT2; [4],0.83 ± 0.53 pmol/mg protein
same,Fold accumulation,human PEPT2; [4],1.95
same,"Max. transporter-specific fold accumulation, without inhibitor",human PEPT2; pH 5.0,1.95
same,"Max. transporter-specific fold accumulation, with inhibitor",human PEPT2; pH 5.0,2.27
same,Accumulation in PEPT2 transporter expressing cells,human PEPT2; [5],0.17 ± 0.05 pmol/mg protein
same,Accumulation in control cells,human PEPT2; [5],0.08 ± 0.01 pmol/mg protein
same,"Accumulation, active transport",human PEPT2; [5],0.09 ± 0.05 pmol/mg protein
same,Fold accumulation,human PEPT2; [5],2.21
same,Accumulation in PEPT2 transporter expressing cells,human PEPT2; [6],0.15 ± 0.05 pmol/mg protein
same,Accumulation in control cells,human PEPT2; [6],0.10 ± 0.04 pmol/mg protein
same,"Accumulation, active transport",human PEPT2; [6],0.06 ± 0.06 pmol/mg protein
same,Fold accumulation,human PEPT2; [6],1.57
same,Accumulation in PEPT2 transporter expressing cells,human PEPT2; [7],1.57 ± 0.55 pmol/mg protein
same,Accumulation in control cells,human PEPT2; [7],0.70 ± 0.16 pmol/mg protein
same,"Accumulation, active transport",human PEPT2; [7],0.88 ± 0.58 pmol/mg protein
same,Fold accumulation,human PEPT2; [7],2.26
same,Accumulation in PEPT2 transporter expressing cells,human PEPT2; [8],1.57 ± 0.45 pmol/mg protein
same,Accumulation in control cells,human PEPT2; [8],0.87 ± 0.07 pmol/mg protein
same,"Accumulation, active transport",human PEPT2; [8],0.70 ± 0.45 pmol/mg protein
same,Fold accumulation,human PEPT2; [8],1.81
same,"Max. transporter-specific fold accumulation, without inhibitor",human PEPT2; pH 6.0,1.81
same,"Max. transporter-specific fold accumulation, with inhibitor",human PEPT2; pH 6.0,2.26
